Like-named read-outs stand apart in the source and are kept apart here.
Key:
Assay type in all cases: biochemical
CDK4/CCND3 = CDK4/CCND3 (Homo sapiens, UniProt P11802); experiment: CDK4 homogeneous time-resolved fluorescence (HTRF) kinase assay; settings: CDK4/CCND
Summary of the method: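 Inhibition of CDK4/CCND3 (1.5 nM) was measured at high ATP (1 mM) using 50 nM ULight-labelled 4E-BP1 Thr37/46 peptide; detection used 2 nM europium anti-phospho antibody after EDTA quench. IC50 values came from 11-point half-log titrations typically starting at 10 μM.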

CDK2/CCNE1 = CDK2/CCNE1 (Homo sapiens, UniProt P24941); experiment: CDK2 homogeneous time-resolved fluorescence (HTRF) kinase assay; settings: CDK2/CCNE
Summary of the method: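 3 nM CDK2/CCNE1 was preincubated with compound for 20 min at 23 °C in HEPES buffer (pH not stated), then reacted 60 min with 1 mM ATP and 50 nM ULight-4E-BP1 (Thr37/46) peptide. After EDTA stop, Eu-anti-phospho-4E-BP1 antibody (2 nM) was added for 60 min and TR-FRET read at 665 nm.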

CDK6/CCND1 = CDK6/CCND1 (Homo sapiens, UniProt Q00534); experiment: CDK6 homogeneous time-resolved fluorescence (HTRF) kinase assay; settings: CDK6/CCND
CDK6/CCND1, sequence (Q00534 whole entry): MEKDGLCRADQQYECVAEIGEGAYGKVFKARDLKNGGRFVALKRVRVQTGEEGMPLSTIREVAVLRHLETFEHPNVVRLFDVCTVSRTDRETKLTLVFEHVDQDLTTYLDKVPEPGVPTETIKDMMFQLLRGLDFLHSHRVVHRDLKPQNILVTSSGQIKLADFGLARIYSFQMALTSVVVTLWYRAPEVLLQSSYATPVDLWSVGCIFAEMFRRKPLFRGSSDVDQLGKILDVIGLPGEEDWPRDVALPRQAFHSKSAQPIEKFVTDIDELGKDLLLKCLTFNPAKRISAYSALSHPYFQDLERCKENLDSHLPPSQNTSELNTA
CDK6/CCND1, sequence (P24385 whole entry partner): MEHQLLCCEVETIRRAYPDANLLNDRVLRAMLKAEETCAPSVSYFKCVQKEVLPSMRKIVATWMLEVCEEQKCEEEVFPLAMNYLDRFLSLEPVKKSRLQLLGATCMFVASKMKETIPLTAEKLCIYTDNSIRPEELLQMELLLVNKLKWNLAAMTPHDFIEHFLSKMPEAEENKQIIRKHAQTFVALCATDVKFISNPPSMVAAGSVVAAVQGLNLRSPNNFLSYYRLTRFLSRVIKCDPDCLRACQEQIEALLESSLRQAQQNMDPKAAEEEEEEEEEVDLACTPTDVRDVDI
Summary of the method: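 1 nM enzyme, 1 mM ATP, 50 nM ULight-4E-BP1 (Thr37/46) peptide, 1% DMSO; 20 min compound preincubation, 60 min reaction, 23 °C. EDTA stop, 2 nM Eu-anti-phospho-4E-BP1 antibody 60 min. TR-FRET 665 nm (or 665/615 ratio); IC50 from 11-point half-log titration, top 10 μM.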

CDK1/CCNB1 = CDK1/CCNB1 (Homo sapiens, UniProt P06493); experiment: CDK1 homogeneous time-resolved fluorescence (HTRF) kinase assay; settings: CDK1/CCNB
CDK1/CCNB1, sequence (P06493 whole entry): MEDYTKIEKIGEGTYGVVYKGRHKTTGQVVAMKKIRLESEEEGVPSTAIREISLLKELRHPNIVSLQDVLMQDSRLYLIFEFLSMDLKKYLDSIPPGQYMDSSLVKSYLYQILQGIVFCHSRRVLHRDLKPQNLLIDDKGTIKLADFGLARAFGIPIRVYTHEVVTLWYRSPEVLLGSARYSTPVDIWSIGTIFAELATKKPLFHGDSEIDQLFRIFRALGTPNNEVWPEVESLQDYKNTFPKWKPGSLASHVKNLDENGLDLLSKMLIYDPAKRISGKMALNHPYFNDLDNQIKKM
CDK1/CCNB1, sequence (P14635 whole entry partner): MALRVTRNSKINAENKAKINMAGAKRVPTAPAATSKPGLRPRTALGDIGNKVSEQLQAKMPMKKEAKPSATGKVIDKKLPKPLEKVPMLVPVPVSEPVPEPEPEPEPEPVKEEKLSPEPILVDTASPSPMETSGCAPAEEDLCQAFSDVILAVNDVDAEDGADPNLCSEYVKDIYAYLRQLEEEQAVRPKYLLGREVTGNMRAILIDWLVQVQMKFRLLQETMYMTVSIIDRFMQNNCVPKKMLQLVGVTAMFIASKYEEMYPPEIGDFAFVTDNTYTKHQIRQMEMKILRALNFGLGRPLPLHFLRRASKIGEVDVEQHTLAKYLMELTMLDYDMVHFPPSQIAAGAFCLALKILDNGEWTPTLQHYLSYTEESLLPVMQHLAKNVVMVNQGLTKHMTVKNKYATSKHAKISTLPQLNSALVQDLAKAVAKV
Summary of the method: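 Kinase activity is measured as Lance signal (665 nm, or 665/615 nm ratio) from europium-labelled anti-phospho-Thr37/46 antibody binding ULight-4E-BP1 peptide. Reactions contain 0.5 nM enzyme, 1 mM ATP, 1% DMSO and run 60 min at 23 °C before EDTA quench.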

[1] = 25-250 nM marked x, read-out: CDK4/CCND IC50 25-250 nM
[2] = <25 nM, read-out: CDK2/CCNE IC50 <25 nM
[3] = <25 nM, read-out: CDK6/CCND IC50 <25 nM
[4] = >250 nM marked x, read-out: CDK1/CCNB IC50 >250 nM
[5] = 25-250 nM marked x, read-out: CDK6/CCND IC50 25-250 nM
[6] = <25 nM, read-out: CDK4/CCND IC50 <25 nM
[7] = 25-250 nM marked x, read-out: CDK1/CCNB IC50 25-250 nM
[8] = 25-250 nM marked x, read-out: CDK2/CCNE IC50 25-250 nM
[9] = >250 nM marked x, read-out: CDK4/CCND IC50 >250 nM
[10] = >250 nM marked x, read-out: CDK6/CCND IC50 >250 nM

CDK4/CCND3, sequence (P11802 whole entry): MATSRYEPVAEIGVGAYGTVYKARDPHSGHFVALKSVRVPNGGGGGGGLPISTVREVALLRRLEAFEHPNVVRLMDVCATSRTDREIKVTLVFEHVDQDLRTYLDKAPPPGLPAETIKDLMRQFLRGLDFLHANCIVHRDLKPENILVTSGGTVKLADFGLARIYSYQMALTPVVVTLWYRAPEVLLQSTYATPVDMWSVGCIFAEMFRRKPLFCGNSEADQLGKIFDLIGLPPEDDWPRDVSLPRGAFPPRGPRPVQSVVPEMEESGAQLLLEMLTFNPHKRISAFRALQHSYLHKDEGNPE
CDK4/CCND3, sequence (P30281 whole entry partner): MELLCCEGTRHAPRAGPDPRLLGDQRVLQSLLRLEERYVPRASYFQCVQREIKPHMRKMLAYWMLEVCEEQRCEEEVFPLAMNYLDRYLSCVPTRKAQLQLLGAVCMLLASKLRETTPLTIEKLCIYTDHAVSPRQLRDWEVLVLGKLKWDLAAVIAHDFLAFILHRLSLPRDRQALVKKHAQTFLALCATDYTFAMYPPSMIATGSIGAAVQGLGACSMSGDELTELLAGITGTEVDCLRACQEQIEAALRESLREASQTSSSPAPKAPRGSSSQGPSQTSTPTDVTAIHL

Row | Compound | IC50 (CDK4/CCND3; [1]) [nM] | IC50 (CDK2/CCNE1; [2]) [nM] | IC50 (CDK6/CCND1; [3]) [nM] | IC50 (CDK1/CCNB1; [4]) [nM] | IC50 (CDK6/CCND1; [5]) [nM] | IC50 (CDK4/CCND3; [6]) [nM] | IC50 (CDK1/CCNB1; [7]) [nM] | IC50 (CDK2/CCNE1; [8]) [nM] | IC50 (CDK1/CCNB1; <25 nM, read-out: CDK1/CCNB IC50 <25 nM) [nM] | IC50 (CDK4/CCND3; [9]) [nM] | IC50 (CDK6/CCND1; [10]) [nM]
1 | CS(=O)(=O)N1CCC(Nc2cc3c(-c4ccc(CO)cc4)nccc3cn2)CC1 [Ex 78, (4-(7-((1-(methylsulfonyl)piperidin-4-yl)amino)-2,6-naphthyridin-1-yl)phenyl)methanol] | 25 to 250 | < 25 | < 25 | > 250 | – | – | – | – | – | – | –
2 | CS(=O)(=O)N1CCC(Nc2cc3c(-c4ccccc4OC(F)(F)F)nccc3cn2)CC1 [Ex 81, N-(1-(methylsulfonyl)piperidin-4-yl)-5-(2-(trifluoromethoxy)phenyl)-2,6-naphthyridin-3-amine] | 25 to 250 | < 25 | – | > 250 | 25 to 250 | – | – | – | – | – | –
3 | CS(=O)(=O)N1CCC(Nc2cc3c(-c4cncs4)nccc3cn2)CC1 [Ex 82, N-(1-(methylsulfonyl)piperidin-4-yl)-5-(thiazol-5-yl)-2,6-naphthyridin-3-amine] | 25 to 250 | < 25 | – | > 250 | 25 to 250 | – | – | – | – | – | –
4 | CS(=O)(=O)N1CCC(Nc2cc3c(C4=CCOCC4)nccc3cn2)CC1 [Ex 87, 5-(3,6-dihydro-2H-pyran-4-yl)-N-(1-(methylsulfonyl)piperidin-4-yl)-2,6-naphthyridin-3-amine] | 25 to 250 | < 25 | – | > 250 | 25 to 250 | – | – | – | – | – | –
5 | CS(=O)(=O)N1CCC(Nc2cc3c(-c4ccc5cc[nH]c5c4)nccc3cn2)CC1 [Ex 89, 5-(1H-indol-6-yl)-N-(1-(methylsulfonyl)piperidin-4-yl)-2,6-naphthyridin-3-amine] | – | < 25 | < 25 | – | – | < 25 | 25 to 250 | – | – | – | –
6 | CS(=O)(=O)N1CCC(Nc2cc3c(-c4cc[nH]c4)nccc3cn2)CC1 [Ex 90, N-(1-(methylsulfonyl)piperidin-4-yl)-5-(1H-pyrrol-3-yl)-2,6-naphthyridin-3-amine] | 25 to 250 | < 25 | – | > 250 | 25 to 250 | – | – | – | – | – | –
7 | CS(=O)(=O)N1CCC(Nc2cc3c(-c4ccc5c(c4)CC(=O)N5)nccc3cn2)CC1 [Ex 91, 5-(7-((1-(methylsulfonyl)piperidin-4-yl)amino)-2,6-naphthyridin-1-yl)indolin-2-one] | 25 to 250 | < 25 | – | > 250 | 25 to 250 | – | – | – | – | – | –
8 | CN(CCO)C(=O)c1nccc2cnc(NC3CCN(S(C)(=O)=O)CC3)cc12 [Ex 96, N-(2-hydroxyethyl)-N-methyl-7-((1-(methylsulfonyl)piperidin-4-yl)amino)-2,6-naphthyridine-1-carboxamide] | 25 to 250 | – | – | – | 25 to 250 | – | 25 to 250 | 25 to 250 | – | – | –
9 | Oc1ccc(Nc2cc3c(C4=CCCCC4)nccc3cn2)cc1 [Ex 99, 4-((5-(cyclohex-1-en-1-yl)-2,6-naphthyridin-3-yl)amino)phenol] | 25 to 250 | < 25 | < 25 | – | – | – | 25 to 250 | – | – | – | –
10 | Oc1cccc(Nc2cc3c(C4=CCCCC4)nccc3cn2)c1 [Ex 100, 3-((5-(cyclohex-1-en-1-yl)-2,6-naphthyridin-3-yl)amino)phenol] | 25 to 250 | < 25 | < 25 | > 250 | – | – | – | – | – | – | –
11 | CS(=O)(=O)N1CCC(Nc2cc3c(C4=CCCCC4)nccc3cn2)CC1 [Ex 102, 5-(cyclohex-1-en-1-yl)-N-(1-(methylsulfonyl)piperidin-4-yl)-2,6-naphthyridin-3-amine] | – | < 25 | < 25 | – | – | < 25 | 25 to 250 | – | – | – | –
12 | C=CS(=O)(=O)N1CCC(Nc2cc3c(N4CCC(C5CCN(C)CC5)CC4)nccc3cn2)CC1 [Ex 103, 5-(1'-methyl-[4,4'-bipiperidin]-1-yl)-N-(1-(vinylsulfonyl)piperidin-4-yl)-2,6-naphthyridin-3-amine] | 25 to 250 | – | – | > 250 | 25 to 250 | – | – | 25 to 250 | – | – | –

Next, values leading:

Row | IC50 (CDK4/CCND3; [1]) [nM] | IC50 (CDK2/CCNE1; [2]) [nM] | IC50 (CDK6/CCND1; [3]) [nM] | IC50 (CDK1/CCNB1; [4]) [nM] | IC50 (CDK6/CCND1; [5]) [nM] | IC50 (CDK4/CCND3; [6]) [nM] | IC50 (CDK1/CCNB1; [7]) [nM] | IC50 (CDK2/CCNE1; [8]) [nM] | IC50 (CDK1/CCNB1; <25 nM, read-out: CDK1/CCNB IC50 <25 nM) [nM] | IC50 (CDK4/CCND3; [9]) [nM] | IC50 (CDK6/CCND1; [10]) [nM] | Compound
13 | 25 to 250 | < 25 | – | – | 25 to 250 | – | 25 to 250 | – | – | – | – | C=CS(=O)(=O)N1CCC(Nc2cc3c(N4CCC(C#N)CC4)nccc3cn2)CC1 [Ex 106, 1-(7-((1-(vinylsulfonyl)piperidin-4-yl)amino)-2,6-naphthyridin-1-yl)piperidine-4-carbonitrile]
14 | 25 to 250 | < 25 | – | > 250 | 25 to 250 | – | – | – | – | – | – | C=CS(=O)(=O)N1CCC(Nc2cc3c(-c4ccncc4C)nccc3cn2)CC1 [Ex 107, 5-(3-methylpyridin-4-yl)-N-(1-(vinylsulfonyl)piperidin-4-yl)-2,6-naphthyridin-3-amine]
15 | 25 to 250 | < 25 | – | – | 25 to 250 | – | – | – | < 25 | – | – | O=C(ON1C(=O)CCC1=O)c1ccc(Nc2cc3c(C4=CCCCC4)nccc3cn2)cc1 [Ex 113, 2,5-dioxopyrrolidin-1-yl 4-((5-(cyclohex-1-en-1-yl)-2,6-naphthyridin-3-yl)amino)benzoate]
16 | – | < 25 | < 25 | – | – | < 25 | 25 to 250 | – | – | – | – | Cc1c(-c2nccc3cnc(NC4CCN(S(C)(=O)=O)CC4)cc23)ccc2[nH]ncc12 [Ex 116, 5-(4-methyl-1H-indazol-5-yl)-N-(1-(methylsulfonyl)piperidin-4-yl)-2,6-naphthyridin-3-amine]
17 | – | < 25 | < 25 | – | – | < 25 | 25 to 250 | – | – | – | – | Cc1cc2[nH]ncc2cc1-c1nccc2cnc(NC3CCN(S(C)(=O)=O)CC3)cc12 [Ex 117, 5-(6-methyl-1H-indazol-5-yl)-N-(1-(methylsulfonyl)piperidin-4-yl)-2,6-naphthyridin-3-amine]
18 | – | – | – | > 250 | – | – | – | 25 to 250 | – | > 250 | > 250 | C#Cc1nccc2cnc(Nc3ccc(S(C)(=O)=O)cc3)cc12 [Ex 124, 5-ethynyl-N-(4-(methylsulfonyl)phenyl)-2,6-naphthyridin-3-amine]
19 | – | < 25 | < 25 | – | – | < 25 | 25 to 250 | – | – | – | – | CS(=O)(=O)c1ccc(Nc2cc3c(C4=CCCCC4)nccc3cn2)cc1 [Ex 127, 5-(cyclohex-1-en-1-yl)-N-(4-(methylsulfonyl)phenyl)-2,6-naphthyridin-3-amine]
20 | – | – | – | > 250 | – | – | – | 25 to 250 | – | > 250 | > 250 | CS(=O)(=O)c1ccc(Nc2cc3c(C#Cc4ccc(C#N)cc4)nccc3cn2)cc1 [Ex 129, 4-((7-((4-(methylsulfonyl)phenyl)amino)-2,6-naphthyridin-1-yl)ethynyl)benzonitrile]
21 | 25 to 250 | < 25 | – | – | 25 to 250 | – | 25 to 250 | – | – | – | – | CS(=O)(=O)c1ccc(Nc2cc3c(C#CCCO)nccc3cn2)cc1 [Ex 130, 4-(7-((4-(methylsulfonyl)phenyl)amino)-2,6-naphthyridin-1-yl)but-3-yn-1-ol]
22 | – | – | – | > 250 | – | – | – | 25 to 250 | – | > 250 | > 250 | C=CS(=O)(=O)c1ccc(Nc2cc3c(-c4ccc(C#N)cc4)nccc3cn2)cc1 [Ex 131, 4-(7-((4-(vinylsulfonyl)phenyl)amino)-2,6-naphthyridin-1-yl)benzonitrile]
23 | – | – | – | > 250 | – | – | – | 25 to 250 | – | > 250 | > 250 | C=CS(=O)(=O)c1ccc(Nc2cc3c(-c4cccc(C#N)c4)nccc3cn2)cc1 [Ex 136, 3-(7-((4-(vinylsulfonyl)phenyl)amino)-2,6-naphthyridin-1-yl)benzonitrile]
24 | – | – | – | > 250 | – | – | – | 25 to 250 | – | > 250 | > 250 | C=CS(=O)(=O)c1ccc(Nc2cc3c(-c4cccc(COC)c4)nccc3cn2)cc1 [Ex 137, 5-(3-(methoxymethyl)phenyl)-N-(4-(vinylsulfonyl)phenyl)-2,6-naphthyridin-3-amine]
25 | 25 to 250 | < 25 | – | > 250 | 25 to 250 | – | – | – | – | – | – | CS(=O)(=O)c1ccc(Nc2cc3c(C#Cc4ccncc4)nccc3cn2)cc1 [Ex 138, N-(4-(methylsulfonyl)phenyl)-5-(pyridin-4-ylethynyl)-2,6-naphthyridin-3-amine]
26 | 25 to 250 | < 25 | – | – | 25 to 250 | – | 25 to 250 | – | – | – | – | CS(=O)(=O)c1ccc(Nc2cc3c(C4=NCCS4)nccc3cn2)cc1 [Ex 139, 5-(4,5-dihydrothiazol-2-yl)-N-(4-(methylsulfonyl)phenyl)-2,6-naphthyridin-3-amine]
